Experimental data reported in patent US20230384333A1 (priority 2020, published 2023).
“Also recorded” adds a separate entry of the source. Where two headings read alike, the source gives them in different places.

How the values were obtained:
C57BL/6J mice = test: Head-twitch response (HTR) assay; assay type: in vivo, mouse; conditions: i.p., multiple doses
Protocol: The HTR assay was performed as described previously using both male and female C57BL/6J mice (2 male and 2 female=4 total per treatment). The mice were obtained from The Jackson Laboratory (Sacramento, C.A.) and were approximately 8-weeks old at the time of the experiments. Compounds were administered (5 mL/kg, i.p.) using 0.9% saline as the vehicle. After injection, animals were placed into an empty cage (8″×13″×5″) and HTRs were videotaped, scored later by two blinded observers, and the results were averaged (interpersonnel kappas, Pearson correlation coefficient>0.91). Locomotion was assessed using AnyMaze automated tracking software.

psychLight2 [1] = assay type: cell-based, human
Protocol: Compounds unlikely to bind to the sensor should produce minimal to no response in either agonist or antagonist mode. Therefore, a ligand score was calculated as: […]

psychLight2 [2] = test: PSYLI2 high-content imaging, agonist mode; assay type: cell-based, human
Protocol: (§1) High-Content Imaging Experiments. Glass bottom 96-well plates (P96-1.5H-N, Cellvis) were coated with 50 μg/mL of poly-D-lysine (Sigma, P6407-5MG) and 10 μg/mL laminin (Sigma, L2020) overnight in an incubator (37° C., 5% CO2). […] Immediately prior to an experiment, stock solutions of drugs in DMSO (10 mM) were first diluted 1:100 in imaging media distributed across an empty 96-well plate (treatment plate) in triplicates following a randomized plate map. […] Cells grown in a separate 96-well plate (assay plate) were gently washed (3×) with imaging media, and the wells were filled with an appropriate volume of imaging media for the respective experiment (vide infra).
(§2) For agonist mode, […] of imaging media was added to each well of the assay plate. Wells were then imaged on a Lecia DMi8 using Leica Application Suite X (V3.6.0.20104) at 40×(N.A.=0.6) with 5 regions of interest (ROI) taken per well using the default 5 ROI pattern for each well with no bias to location and no overlap of the ROIs (exposure=350 ms, LED power=80%). Next, 20 μL from the treatment plate was transferred to the assay plate for a total 1:1000 dilution of drug (10 μM drug, 0.1% DMSO). […] All final concentrations of drugs were 10 μM (0.1% DMSO) in agonist mode unless stated otherwise. After 5 min of incubation, the same sites were re-imaged using the same settings.
Once imaging was complete, the images were exported, put into a stack, and analyzed using ImageJ Fiji (ver. 1.51v) by using the rectangle function to draw an ROI around the cell membrane (one cell per image) on both the pre- and posttreatment images. ROI sizes within each plate were kept the same and saved to the ROI manager in ImageJ (ctrl+T). Images were then measured using the “multi measure” function in the ROI manager. Measurements were saved and exported. Analysis of the data was done by taking the average of each individual well's ROIs before and after drugs were added. Then the ΔF/F values for each well were calculated using the following equation: […]
as §1, with “Glass” for “High-Content Imaging Experiments. Glass”, “50 µg/mL” for “50 μg/mL”, “10 pg/mL of” for “10 μg/mL”, “were” for “were first”, “in triplicate” for “in triplicates”, “washed 3×” for “washed (3×)”
as §2, with “agonist mode experiments,” for “agonist mode,”, “media were” for “media was”, “20 pL” for “20 μL”, “plate containing” for “plate for”, “a” for “a total”, “(10 pM as the final concentration in” for “(10 μM drug,”
Once imaging was complete, the images were exported, and analyzed using self-written MATLAB script. Script will be deposit on to Github. In short, segmentation was performed on individual images and a mask highlighting the membrane of the HEK293T cells was generated. Pixel intensities were obtained from the mask-highlighted area and exported into Excel. The ΔF/F values for each well were calculated using the following equation: […]

psychLight1 [3] = molecular target: psychLight1 (Homo sapiens, UniProt P28223, E264Q/I181A); test: cell-based; assay type: cell-based
psychLight1 (Homo sapiens, UniProt P28223, E264Q/I181A), sequence (P28223 whole entry I181A/E264Q, looked up): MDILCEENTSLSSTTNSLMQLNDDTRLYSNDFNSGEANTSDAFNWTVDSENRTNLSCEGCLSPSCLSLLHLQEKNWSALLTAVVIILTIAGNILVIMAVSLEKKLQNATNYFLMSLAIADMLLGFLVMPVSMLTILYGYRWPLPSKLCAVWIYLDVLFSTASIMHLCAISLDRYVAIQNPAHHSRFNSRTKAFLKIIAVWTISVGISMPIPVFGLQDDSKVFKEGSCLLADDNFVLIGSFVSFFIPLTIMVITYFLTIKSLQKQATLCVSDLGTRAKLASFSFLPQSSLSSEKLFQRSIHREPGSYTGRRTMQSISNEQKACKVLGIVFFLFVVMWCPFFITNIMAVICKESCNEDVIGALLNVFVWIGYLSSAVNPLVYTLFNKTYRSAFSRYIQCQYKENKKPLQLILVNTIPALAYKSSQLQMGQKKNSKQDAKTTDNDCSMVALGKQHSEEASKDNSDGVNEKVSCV
Protocol: (§3) HEK293T cells were grown in DMEM, supplemented with fetal bovine serum (FBS) and penicillin-streptomycin. Cells were trans-fected with Effectene according to the manufacturer's instructions. Prior to imaging, cells were washed with Hank's Balanced Salt Solution (HBSS) supplemented with 2 mM MgCl2 and 2 mM CaCl2). All images were collected in HBSS containing Mg^2+ and Ca^2+.
(§4) HEK293T cells were plated and transfected concurrently 24 h prior to each experiment using the QIAGEN Effectene Transfection
(§5) Dose-response experiments were performed using an Automate Perfusion System. Cells (HEK293T) were grown on 12 mm cover-slips and transfected with psychLight1. The coverslips were then placed into a coverslip holder and washed with 5 mL of HBSS containing 2 mM MgCl2 and 2 mM CaCl2). Cells were perfused first with 5 mL of 0.1% DMSO, then drugs in ascending concentrations from 1 pM to […] were added, with the concentration of DMSO being held constant at 0.10%. […] For the competition studies described in FIG. 19, HEK293T cells were prepared as described above; however, the cells were first exposed to 5 mL of 0.2% DMSO. […] Analysis was performed by taking 3 ROIs on the cell membrane using ImageJ and calculating the mean intensity for each ROI across the time-points. Finally, the DF/F was calculated using the average of the baseline (0.1 or 0.2% DMSO) and the average intensity between each dosage over the average of the baseline.

psychLight2 [4] = conditions: mouse, in vivo
From the text: Three animals were used for experiments measuring sensor activity in the prelimbic cortex.

psychLight1 [5] = test: cell-based; assay type: cell-based, human; conditions: for EC50: read-out: EC50 (half maximal effective concentration)
Protocol: as §3, §4, §5

psychLight [6] = assay type: cell-based, human
[7] = system: psychLight2 response to electrically evoked 5-HT release; set-up: species or system mouse
psychLight [8] = test: Schild regression analysis in PSYLI2 cells; assay type: cell-based, human
Protocol: During imaging, […] of imaging media were added to each well of the assay plate. Wells were then imaged on a Lecia DMi8 using Leica Application Suite X (V3.6.0.20104) at 40×(N.A.=0.6) with 5 regions of interest (ROI) taken per well using the default 5 ROI pattern for each well with no bias to location and no overlap of the ROIs (exposure=350 ms, LED power=80%). Next, […] from the treatment plate was transferred to the assay plate for a final 1:1000 dilution of drug. All final drug treatments contained 0.1% DMSO. After 5 min of incubation, the same sites were re-imaged using the same settings. The data analysis method was the same as in agonist and antagonist mode.

dLight = assay type: cell-based
[9] = HEK293T cells expressing psychLight
[10] = 10 μM compound, hit limit 1 SD from vehicle

CN(C)CCc1c[nH]c2ccc(Br)cc12 [5-Br-DMT, 5-bromo-N,N-dimethyltryptamine]
head-twitch response (HTR) (C57BL/6J mice): did not induce head-twitches at any dose; also recorded: failed to induce HTRs at any dose
ligand score (psychLight2 [1]): negative ligand score

CN(C)CCc1c[nH]c2ccc(Cl)cc12 [5-Cl-DMT, 5-chloro-N,N-dimethyltryptamine]
head-twitch response (HTR) (C57BL/6J mice): produced robust HTRs
ligand score (psychLight2 [1]): positive ligand scores

CN(C)CCc1c[nH]c2ccc(F)cc12 [5-F-DMT, 5-flouo-N,N-dimethyltryptamine]
head-twitch response (HTR) (C57BL/6J mice): produced robust HTRs
ligand score (psychLight2 [1]): positive ligand scores

NCCc1c[nH]c2ccc(O)cc12 [5-HT, serotonin]
PSYLI2 response (positive and negative controls) (psychLight2 [2]): 44.8±0.8%
fluorescence intensity change, high content imager with psychLight2 (psychLight2 [2]): 38.2±2.4%
ΔF/F PSYLI2 fluorescence, panel of tryptamines (psychLight2 [2]): 46.3%±1.4%
fluorescence intensity change, confocal with psychLight1 (psychLight1 [3]): 77.3±2.4%

COc1ccc2[nH]cc(CCN(C)C)c2c1 [5-MeO, 5-methoxy-N,N-dimethyltrytamine]
fluorescence intensity change, high content imager with psychLight2 (psychLight2 [2]): 24.1±4.6%
head-twitch response during fiber photometry (psychLight2 [4]): concomitant increase in HTR
psychLight2 fluorescence in prelimbic cortex after injection (psychLight2 [4]): sharp increase in fluorescence
fluorescence intensity change, confocal with psychLight1 (psychLight1 [5]): 48.4±3.1%
EC50 (psychLight1 [5]): 157 nM
Emax (psychLight1 [3]): 48.4%

CN(C)CCc1c[nH]c2ccc(O)cc12 [BUFO, N,N-dimethylserotonin]
ΔF/F PSYLI2 fluorescence, panel of tryptamines (psychLight2 [2]): 22.3%±2.8%

CN(C)CCc1c[nH]c2ccccc12 [DMT, N,N-dimethyltrytamine]
screen outcome in agonist mode (psychLight2 [2]): false negative
EC50 (psychLight1 [5]): 627 nM
Emax (psychLight1 [3]; HEK-293T): 12.4%

NCCCC(=O)O [GABA, y-aminobutyric acid]
response of psychLight to neurotransmitters (psychLight [6]; [9]): do not respond

O=C(c1ccc(F)cc1)C1CCN(CCn2c(=O)[nH]c3ccccc3c2=O)CC1 [KETSN, ketanserin]
PSYLI2 response (positive and negative controls) (psychLight2 [2]): −12.7±0.5%
fluorescence intensity change, high content imager with psychLight2 (psychLight2 [2]): −3.5±1.6%
block of 5-HT-induced activation of psychLight (psychLight1 [3]): able to block 5-HT-induced activation of psychLight
effect on psychLight fluorescence (psychLight1 [3]): neutral antagonists; also recorded: minimal effect on psychLight1 fluorescence or slightly quenched the sensor
fluorescence intensity change, confocal with psychLight1 (psychLight1 [3]): −1.7±0.3%
block of psychLight fluorescence to electrically evoked 5-HT transients [7]: sufficient to block psychLight fluorescence
peak response to field stimulation of BNST slices ([7]; KETSN 10 μM, N=5 slices): 0±0.36%

CCN(CC)C(=O)N[C@H]1C=C2c3cccc4[nH]cc(c34)C[C@H]2N(C)C1 [LIS, lisuride]
Schild regression (pA2) outcome (psychLight [8]): potent psychLight competitive antagonists

CCN(CC)C(=O)[C@@H]1C=C2c3cccc4[nH]cc(c34)C[C@H]2N(C)C1 [LSD, lysergic acid diethylamide]
activation of dLight (dLight): both activated dLight to the same extent

CNCCc1c[nH]c2ccc(O)cc12 [N-5-HT, N-methylserotonin]
ΔF/F PSYLI2 fluorescence, panel of tryptamines (psychLight2 [2]): 24.6%±1.7%

c1ccc(C2(N3CCCCC3)CCCCC2)cc1 [PCP, Phencyclidine]
screen outcome in agonist mode (psychLight2 [2]): did not activate the sensor
ligand score (psychLight2 [1]): ~0

C[C@H](Cc1ccccc1)N(C)C [R-dimethamphetamine, (R)-dimethamphetamine]
screen outcome in agonist mode (psychLight2 [2]; [10]): potential hallucinogenic hits

CN1CCc2cccc3c2[C@H]1Cc1ccc(O)c(O)c1-3 [apomorphine, R-(−)-apomorphine]
Schild regression (pA2) outcome (psychLight [8]): potent psychLight competitive antagonists

CN1[C@@H]2CC[C@H]1C[C@@H](OC(c1ccccc1)c1ccccc1)C2 [benztropine]
Schild regression (pA2) outcome (psychLight [8]): potent psychLight competitive antagonists

NCCc1ccc(O)c(O)c1 [dopamine]
response of psychLight to neurotransmitters (psychLight [6]): do not respond

N[C@@H](CCC(=O)O)C(=O)O [glutamate, L-glutamic acid]
response of psychLight to neurotransmitters (psychLight [6]; [9]): do not respond

CN1C2CCCC1CC(NC(=O)c1nn(C)c3ccccc13)C2 (centres unmarked) [granisetron]
block of psychLight fluorescence to electrically evoked 5-HT transients [7]: sufficient to block psychLight fluorescence

NC[C@H](O)c1ccc(O)c(O)c1 [norepinephrine]
response of psychLight to neurotransmitters (psychLight [6]; [9]): do not respond

COC(=O)[C@@H]1C[C@H](OC(C)=O)C(=O)[C@H]2[C@@]1(C)CC[C@H]1C(=O)O[C@H](c3ccoc3)C[C@]21C [salvinorin A]
screen outcome in agonist mode (psychLight2 [2]; [10]): did not activate the sensor
ligand score (psychLight2 [1]): ~0

NCCc1c[nH]c2ccccc12 [tryptamine]
ΔF/F PSYLI2 fluorescence, panel of tryptamines (psychLight2 [2]): robust response

tetrodotoxin citrate
block of psychLight fluorescence to electrically evoked 5-HT transients [7]: sufficient to block psychLight fluorescence
